Consider 1 molecule from PMC12638251, “Uridine-sensitized screening identifies demethoxy-coenzyme Q and NUDT5 as regulators of nucleotide synthesis” (Nature Metabolism, 2025).

The target in this assay is T1, PPAT (amidophosphoribosyltransferase) (Homo sapiens, UniProt Q06203).
T1 construct: with NUDT5
Briefly: native PAGE of K562 lysate with PRPP dose curve (loss of NUDT5-PPAT oligomer); co-immunoprecipitation with […] PRPP. The format is biochemical.

Molecules are shown by their SMILES.

For orientation: IC50 means the concentration needed to halve the response being measured.

T1 sequence (Q06203 12-517): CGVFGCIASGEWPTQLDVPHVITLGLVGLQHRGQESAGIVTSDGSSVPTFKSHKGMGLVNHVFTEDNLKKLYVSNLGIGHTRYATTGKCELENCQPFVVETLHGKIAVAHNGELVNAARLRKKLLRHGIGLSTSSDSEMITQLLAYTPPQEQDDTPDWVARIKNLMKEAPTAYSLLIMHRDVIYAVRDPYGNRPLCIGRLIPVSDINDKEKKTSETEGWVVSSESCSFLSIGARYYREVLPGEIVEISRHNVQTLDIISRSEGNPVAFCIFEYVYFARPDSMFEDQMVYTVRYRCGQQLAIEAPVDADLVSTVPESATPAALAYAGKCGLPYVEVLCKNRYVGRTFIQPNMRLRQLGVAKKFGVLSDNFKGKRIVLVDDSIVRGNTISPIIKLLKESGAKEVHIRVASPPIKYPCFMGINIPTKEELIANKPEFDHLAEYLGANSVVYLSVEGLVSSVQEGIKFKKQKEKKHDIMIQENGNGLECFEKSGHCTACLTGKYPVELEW
T1 sequence (O95848 whole entry partner): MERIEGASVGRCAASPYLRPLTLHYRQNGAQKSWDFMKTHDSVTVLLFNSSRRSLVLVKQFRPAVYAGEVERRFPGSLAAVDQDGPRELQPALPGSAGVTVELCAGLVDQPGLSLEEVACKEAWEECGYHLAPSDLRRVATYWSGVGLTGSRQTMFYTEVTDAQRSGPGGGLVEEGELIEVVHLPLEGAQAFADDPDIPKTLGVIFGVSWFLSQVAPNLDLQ

In turn, `O=P(O)(O)OC[C@H]1OC(OP(=O)(O)OP(=O)(O)O)[C@H](O)[C@@H]1O` (stereo partly shown) [PRPP, phosphoribosyl pyrophosphate] showed an IC50 of 100 µM.
